Experimental data published in patent publication US20220152077A1 (THE UNIVERSITY OF WARWICK, priority 2019, published 2022).
Entries after “also recorded” stand apart in the source; their conditions may differ.

Assays:
[1] = test system: Goa; type: cell-based, human; settings: PTX-treated cells
Protocol: (§1) Cells were then incubated for 24 hours before addition of 100 ng/ml PTX, to inhibit activity of endogenous Gαi/o, and then incubated for a further 16-18 hours. Transfected cells were then assayed as per cAMP inhibition experiments, but co-stimulated with agonist and 100 nM forskolin.
(§2) Data Analysis. […] Statistical significance was tested as indicated in the text using paired or unpaired t-tests or one-way or two-way ANOVAs with repeated measures (RM) as appropriate. Bonferroni corrections for multiple comparisons were performed. All in vitro cell signalling assay data was analysed using Prism 7.0e (Graphpad software, San Diego, Calif.), with all concentration-response curves being fitted using a 3 parameter logistic equation to calculate response range and IC50. All cAMP data was normalised to a forskolin concentration-response curve ran in parallel to each assay. […] Radioligand displacement curves were fitted to the one-site competition binding equation yielding log Ki values. […] To determine the extent of ligand-induced recruitment of β-arrestin2-YFP to either the A1R or A3R, the BRET signal was calculated by subtracting the 530 nm/450 nm emission for vehicle-treated cells from ligand-treated cells (ligand-induced ΔBRET). ΔBRET for each concentration at 5 minutes (maximum response) was used to produce concentration-response curves.

[2] = test system: Gob; assay: cAMP accumulation in PTX-pre-treated CHO-K1-hA1R cells transfected with PTX-insensitive Gob; type: cell-based, human
Protocol: as §1, §2

[3] = test system: synaptic transmission in spinal nociceptive afferents; assay: Dorsal root afferent-evoked EPSPs in dorsal horn neurones, rat spinal cord slices; type: cell-based; settings: rat lumbar spinal cord slices, 0.1 Hz
Protocol: Spinal cord slice preparation: Adult male Sprague-Dawley rats, aged 8-12 weeks (260-280 g), were housed in an air-conditioned room on a 12 hour light/dark cycle with food and water available ad libitum. Rats were terminally anaesthetized using isofluorane and decapitated. […] A laminectomy was performed and the spinal cord and associated roots gently dissected and teased out of the spinal column and surrounding tissues. Dura and pia mater and ventral roots were subsequently removed with fine forceps and the spinal cord hemisected. Care was taken to ensure dorsal root inputs to the spinal cord were maintained. The hemisected spinal cord-dorsal root preparations were secured to a tissue slicer and spinal cord slices (400-450 μm thick) with dorsal roots attached cut in chilled (<4° C.) high sucrose aCSF using a Leica VT1000s microtome. Slices were transferred to a small beaker containing ice-cold standard aCSF (see below) and rapidly warmed to 35±1° C. in a temperature-controlled water bath over a 20 minute period, then subsequently removed and maintained at room temperature (22±2° C.) prior to electrophysiological recording.
Spinal cord electrophysiological recording: For electrophysiological recording, a spinal cord slice was transferred to a custom-built chamber. […]

[4] = test system: seizure activity induced in hippocampal slices; assay: Seizure model in hippocampal slices (no added Mg2+, 6 mM K+ aCSF); type: cell-based, rat; settings: adenosine 20-100 μM, NECA 300 nM, CPA 300 nM, BnOCPA 300 nM to 1 μM
Protocol: (§3) Preparation of hippocampal slices: Sagittal slices of hippocampus (300-400 μm) were prepared from male Sprague Dawley rats, at postnatal days 12 to 20. Rats were kept on a 12-hour light-dark cycle with slices made 90 minutes after entering the light cycle. […] The brain was removed, cut down the mid line and the two sides of the brain stuck down to a metal base plate. […] Slices were stored at 34° C. for 1 to 6 hours in aCSF (1 mM MgCl2, 2 mM CaCl2) before use.
Seizure model: Seizure activity was induced in hippocampal slices using aCSF which contained no added Mg^2+ and with the total K^+ concentration increased to 6 mM with KCl. Removal of extracellular Mg^2+ facilitates NMDA receptor activation producing long lasting EPSPS, which can sum together to produce tonic activation. Increasing the extracellular concentration of K^+ depolarises neurons leading to firing and release of glutamate to sustain activity. Both the increase in K^+ concentration and removal of Mg^2+ are required to produce spontaneous activity in hippocampal slices. Spontaneous activity was measured with an aCSF-filled microelectrode placed within stratum radiatum in CA1.

[5] = test system: membrane potential of pyramidal cells; assay: Whole cell current clamp recording of membrane potential, CA1 pyramidal cells; type: cell-based, rat
Protocol: as §3
Whole cell patch clamp recording from hippocampal pyramidal cells: A slice was transferred to the recording chamber and perfused at 3 mL/min with aCSF at 32±0.5° C. Slices were visualised using IR-DIC optics with an Olympus BX151W microscope (Scientifica) and a CCD camera (Hitachi). […] Voltage and current recordings were obtained using an Axon Multiclamp 700B amplifier (Molecular Devices, USA) and digitised at 20 KHz. Data acquisition and analysis was performed using Pclamp 10 (Molecular Devices). For voltage clamp experiments, CA1 pyramidal cells were held at −60 mV. Peptides to interfere with G protein signalling were introduced via the patch pipette into the recorded cell.

[6] = test system: urethane-anaesthetised, spontaneously breathing adult rats; assay: In vivo anaesthetised rat preparation, respiration
Description: In vivo anaesthetised rat preparation for cardiorespiratory recordings: Anaesthesia was induced in adult male Sprague Dawley rats (230-330 g) with isofluorane (2-4%; Piramal Healthcare). The femoral vein was catheterised for drug delivery. Anaesthesia was maintained with urethane (1.2-1.7 g/kg; Sigma) in sterile saline delivered via the femoral catheter. The femoral artery was catheterised and connected to a pressure transducer (Digitimer) to record arterial blood pressure. […] The rats were then allowed to stabilise before the experiments began. […] Arterial blood pressure recordings were used to derive heart rate (HR: beats·minute^−1; BPM), and to calculate mean arterial blood pressure (MAP: Diastolic pressure+⅓*[Systolic Pressure−Diastolic pressure]). Airflow measurements were used to calculate: tidal volume (VT; mL; pressure sensors were calibrated with a 3 mL syringe), and respiratory frequency (f; breaths·min-1; BrPM). Minute ventilation (VE; mL·min-1) was calculated as f×VT.
Adult male Sprague Dawley rats (400-500 g) were anaesthetised with urethane and instrumented as described above, with the exception that the arterial cannulation was not performed.
After a 20 minutes recovery period CPA (6.3 μg·kg^−1) was administered. All injections were administered IV as a 350 μl·kg^−1 bolus. Changes in f, VT, and VE were measured. If the dosing occurred close to a respiratory event such as a sigh a second IV dose was administered, with 20 minute recovery periods either side of the injection.
One-way ANOVAs, with repeated measures as appropriate, and with Bonferroni correction for multiple comparisons were used. Statistical significance for the effects of IV saline was tested using paired t-tests. Data are reported throughout as mean±SEM and n values are reported for each experiment. […] The significance level was set at P<0.05, with actual P values reported in the figure legends and summaries, by way of abbreviations and asterisks, on the graphs: ns, not significant; * P<0.05; **, P<0.02; ***, P<0.001; ****, P<0.0001.

[7] = test system: synaptic transmission in the hippocampus; assay: Extracellular fEPSP recording in hippocampal slices (synaptic transmission); type: cell-based, rat; settings: rat hippocampal slices, CA1; read-out: IC50, inhibition of synaptic transmission (fEPSP slope)
Protocol: as §3
Extracellular recording: A slice was transferred to the recording chamber, submerged in aCSF and perfused at 4 to 6 mL/min (32° C.). The slice was placed on a grid allowing perfusion above and below the tissue and all tubing was gas tight (to prevent loss of oxygen). For extracellular recording, an aCSF filled microelectrode was placed on the surface of stratum radiatum in CA1. […] For fEPSPs a 10 to 20 minute baseline was recorded at a stimulus intensity that gave 40 to 50% of the maximal response. […] For fEPSP slope, a 1 ms linear region after the fibre volley was measured. Extracellular recordings were made independently on two electrophysiology rigs.
Statistical significance was tested using the unpaired t-test and one-way and two-way ANOVAs with Bonferroni correction for multiple comparisons.
as §2

[8] = test system: urethane-anaesthetised, spontaneously breathing adult rats; assay: In vivo anaesthetised rat preparation, heart rate and mean arterial blood pressure; settings: IV; adenosine 1 mg·kg^−1, BnOCPA 10 μg·kg^−1, CPA 420 ng·kg^−1
[9] = target: T1, human (h) A1R (Homo sapiens, UniProt P30542); assay: Radioligand binding, [3H]DPCPX, membranes of CHO-K1-hA1R cells; settings: displacement of [3H]DPCPX
T1 sequence (P30542 1-326): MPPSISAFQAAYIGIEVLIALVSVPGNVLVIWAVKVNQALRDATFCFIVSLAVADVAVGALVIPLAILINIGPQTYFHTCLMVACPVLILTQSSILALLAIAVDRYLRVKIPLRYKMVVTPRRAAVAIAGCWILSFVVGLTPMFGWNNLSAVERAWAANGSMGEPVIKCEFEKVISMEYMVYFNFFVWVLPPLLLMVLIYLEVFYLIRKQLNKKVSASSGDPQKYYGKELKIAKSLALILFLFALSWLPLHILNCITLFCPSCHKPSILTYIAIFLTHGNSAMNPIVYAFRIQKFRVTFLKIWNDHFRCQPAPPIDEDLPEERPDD
Protocol: Radioligand binding. Radioligand displacement assays were conducted using crude membrane preparations (100 μg protein per tube) acquired from homogenisation of CHO-K1-hA1R cells in ice-cold buffer (2 mM MgCl2, 20 mM HEPES, pH 7.4). […] Non-specific binding was determined in the presence of 10 μM DPCPX. […] Free radioligand was separated from bound radioligand by filtration through Whatman® glass microfiber GF/B 25 mm filters (Sigma-Aldrich). Each filter was then placed in a Sterilin™ scintillation vial and radioactivity determined by: addition of 4 mL of Ultima Gold XR liquid scintillant (PerkinElmer), overnight incubation at room temperature and the retained radioactivity determined using a Beckman Coulter LS 6500 Multi-purpose scintillation counter (Beckman Coulter Inc.; Indiana, USA).
Data Analysis. […] Statistical significance was tested as indicated in the text using paired or unpaired t-tests or one-way or two-way ANOVAs with repeated measures (RM) as appropriate. Bonferroni corrections for multiple comparisons were performed. All in vitro cell signalling assay data was analysed using Prism 7.0e (Graphpad software, San Diego, Calif.), with all concentration-response curves being fitted using a 3 parameter logistic equation to calculate response range and IC50. All cAMP data was normalised to a forskolin concentration-response curve ran in parallel to each assay. […]

[10] = target: T2, human A1R (Homo sapiens, UniProt P30542); assay: BRET assay for β-arrestin2 recruitment in HEK 293 cells; type: cell-based; settings: data not shown
T2 sequence (P30542 1-326): T1 sequence (P30542 1-326)
Protocol: as §2

[11] = test system: isolated frog heart; assay: Frog heart preparation, heart rate; design: species or system Xenopus leavis; settings: adenosine 30 μM, BnOCPA 300 nM
Protocol: Frog heart preparation: Xenopus […] frogs (young adult males) were supplied from Portsmouth Xenopus Resource Centre. Frogs were euthanized with MS222 (0.2% at a pH of 7), decapitated and pithed. The animals were dissected to reveal the heart and the pericardium carefully removed. Heart contractions were measured with a force transducer (AD instruments). Heart rate was acquired via a PowerLab […] (AD instruments) controlled by LabChart 7 (AD instruments). The heart was regularly washed with ringer and drugs were applied directly to the heart.

[12] = IV bolus, BnOCPA 8.3 ug/kg, CPA 6.3 μg·kg^−1

## OC[C@H]1O[C@@H](n2cnc3c(NC4CCCC4)ncnc32)[C@H](O)[C@@H]1O [CPA, N-Cyclopentyladenosine]
[1]
  activation of / coupling to Goa: coupled to a range of Gi/o subunits, and in particular Goa
[2]
  inhibition of cAMP accumulation via Gob: inhibit cAMP accumulation through coupling to Gob
[3]
  effect on dorsal root afferent-evoked EPSPs: significant reduction in amplitude of the EPSPs in CPA, comparable to that of BnOCPA
[4]
  effect on seizure activity: completely suppressed neuronal firing; also recorded: abolished seizure activity
[5]; CPA 300 nM after BnOCPA 300 nM, 10 minutes
  mean hyperpolarisation by CPA in the presence of BnOCPA: 2.7±2 mV
[5]; adenosine 100 μM, CPA 300 nM
  membrane potential after agonist: −71.3±1.4 mV
[5]; adenosine 100 μM, CPA 300 nM, BnOCPA 300 nM-1 μM
  mean change of membrane potential (hyperpolarisation): −7.3±0.85 mV
[5]; example traces, CA1 pyramidal cells
  effect on membrane potential: hyperpolarised the membrane potential
[6]; [12]
  minute ventilation (VE) after injection: 99 ± 19 mL/min
  respiratory frequency (f) after injection: 108±10 BrPM
  tidal volume (VT) after injection: 0.8 ± 0.1 mL
[6]; intravenous injection
  effect on respiration: caused significant respiratory depression
[7]
  IC50: 11.8 ± 2.7 nM
[8]
  change of HR: about 50%
  heart rate (HR) after injection: 207±29 BPM
  mean arterial blood pressure (MAP) after injection: 51±5 mmHg
[9]
  binding affinity at the A1R (comparison): equal affinity
[10]
  β-arrestin recruitment at the A1R: no β-arrestin recruitment
[11]
  effect on isolated frog heart rate: reduced the isolated frog heart rate similar to adenosine
[11]; CPA
  reduction / change of heart rate: 6.2±0.5 BPM
